# Experimental data from US11078193B2 (priority 2014, dated 2021).
# Experiments:
# [1] = Cytotoxicity, HepG2 cells, Resazurin assay; assay type: cell-based; conditions: human
# HBV = assay: anti HBV activity, HepG2.117 inducibly HBV producing cell line (Tet-off), intracellular HBV DNA by realtime PCR; assay type: cell-based; conditions: Hepatitis B virus, 72 h, HepG2.117 cells, 3 days of treatment
Structure (SMILES),CC50 at 4 days [1],EC50 (HBV)
"CC(O)C(C)NS(=O)(=O)c1cn(C)c(C(=O)Nc2ccnc(Cl)c2)c1Cl (racemic) [Compound 90, (+/−)-3-chloro-N-(2-chloro-4-pyridyl)-4-[(2-hydroxy-1-methyl-propyl)sulfamoyl]-1-methyl-pyrrole-2-carboxamide]",> 25000 nM,450 nM
"CC(C)NS(=O)(=O)c1cn(C)c(C(=O)Nc2ccnc(C#N)c2)c1F [Compound 27, N-(2-cyano-4-pyridyl)-3-fluoro-4-(isopropylsulfamoyl)-1-methyl-pyrrole-2-carboxamide]",> 25000 nM,100 nM
"Cc1cc(NC(=O)c2c(Cl)c(S(=O)(=O)N[C@H](C)C(F)(F)F)cn2C)cc(C#N)n1 [Compound 36, 3-chloro-N-(2-cyano-6-methyl-4-pyridyl)-1-methyl-4-[[(1R)-2,2,2-trifluoro-1-methyl-ethyl]sulfamoyl]pyrrole-2-carboxamide]",> 25000 nM,150 nM
"C[C@@H](NS(=O)(=O)c1cn(C)c(C(=O)Nc2cc(F)nc(F)c2F)c1Cl)C(F)(F)F [Compound 43, 3-chloro-1-methyl-4-[[(1R)-2,2,2-trifluoro-1-methyl-ethyl]sulfamoyl]-N-(2,3,6-trifluoro-4-pyridyl)pyrrole-2-carboxamide]",> 25000 nM,80 nM
"C[C@@H](NS(=O)(=O)c1cn(C)c(C(=O)Nc2c(F)cnc(F)c2F)c1Cl)C(F)(F)F [Compound 44, 3-chloro-1-methyl-4-[[(1R)-2,2,2-trifluoro-1-methyl-ethyl]sulfamoyl]-N-(2,3,5-trifluoro-4-pyridyl)pyrrole-2-carboxamide]",> 25000 nM,640 nM
"C[C@@H](NS(=O)(=O)c1cn(C)c(C(=O)Nc2ccc(F)nc2)c1Cl)C(F)(F)F [Compound 50, 3-chloro-N-(6-fluoro-3-pyridyl)-1-methyl-4-[[(1R)-2,2,2-trifluoro-1-methyl-ethyl]sulfamoyl]pyrrole-2-carboxamide]",> 25000 nM,200 nM
"C[C@@H](NS(=O)(=O)c1cn(C)c(C(=O)Nc2ccc(F)cn2)c1Cl)C(F)(F)F [Compound 51, 3-chloro-N-(5-fluoro-2-pyridyl)-1-methyl-4-[[(1R)-2,2,2-trifluoro-1-methyl-ethyl]sulfamoyl]pyrrole-2-carboxamide]",> 25000 nM,600 nM
"Cn1cc(S(=O)(=O)NC2(C(F)(F)F)CC2)cc1C(=O)Nc1ccnc(Cl)c1 [Compound 52, N-(2-chloro-4-pyridyl)-1-methyl-4-[[1-(trifluoromethyl)cyclopropyl]-sulfamoyl]pyrrole-2-carboxamide]",> 25000 nM,80 nM
"Cn1cc(S(=O)(=O)NC2(C)CC(F)(F)C2)c(F)c1C(=O)Nc1ccnc(Cl)c1 [Compound 54, N-(2-chloro-4-pyridyl)-4-[(3,3-difluoro-1-methyl-cyclobutyl)sulfamoyl]-3-fluoro-1-methyl-pyrrole-2-carboxamide]",> 25000 nM,20 nM
"Cn1cc(S(=O)(=O)NC2(C)CC(F)(F)C2)c(F)c1C(=O)Nc1ccnc(C(F)(F)F)c1 [Compound 55, 4-[(3,3-difluoro-1-methyl-cyclobutyl)sulfamoyl]-3-fluoro-1-methyl-N-[2-(trifluoromethyl)-4-pyridyl]pyrrole-2-carboxamide]",> 25000 nM,70 nM
"C[C@@H](NS(=O)(=O)c1cn(C)c(C(=O)Nc2ccnc(C(F)(F)F)c2F)c1Cl)C(F)(F)F [Compound 56, 3-chloro-N-[3-fluoro-2-(trifluoromethyl)-4-pyridyl]-1-methyl-4-[[(1R)-2,2,2-trifluoro-1-methyl-ethyl]sulfamoyl]pyrrole-2-carboxamide]",> 25000 nM,50 nM
"C[C@@H](NS(=O)(=O)c1cn(C)c(C(=O)Nc2cnc(F)c(F)c2)c1Cl)C(F)(F)F [Compound 57, 3-chloro-N-(5,6-difluoro-3-pyridyl)-1-methyl-4-[[(1R)-2,2,2-trifluoro-1-methyl-ethyl]sulfamoyl]pyrrole-2-carboxamide]",> 25000 nM,60 nM
"C[C@H](NS(=O)(=O)c1cn(C)c(C(=O)Nc2ccnc(C#N)c2)c1F)C(C)(F)F [Compound 58, N-(2-cyano-4-pyridyl)-4-[[(1S)-2,2-difluoro-1-methyl-propyl]sulfamoyl]-3-fluoro-1-methyl-pyrrole-2-carboxamide]",> 25000 nM,140 nM
"C[C@H](NS(=O)(=O)c1cn(C)c(C(=O)Nc2ccnc(Cl)c2)c1F)C(C)(F)F [Compound 59, N-(2-chloro-4-pyridyl)-4-[[(1S)-2,2-difluoro-1-methyl-propyl]sulfamoyl]-3-fluoro-1-methyl-pyrrole-2-carboxamide]",> 25000 nM,70 nM
"C[C@H](NS(=O)(=O)c1cn(C)c(C(=O)Nc2ccnc(C(F)(F)F)c2)c1F)C(C)(F)F [Compound 62, 4-[[(1S)-2,2-difluoro-1-methyl-propyl]sulfamoyl]-3-fluoro-1-methyl-N-[2-(trifluoromethyl)-4-pyridyl]pyrrole-2-carboxamide]",> 25000 nM,190 nM
"Cn1cc(S(=O)(=O)NC2(C)CC(F)(F)C2)c(Cl)c1C(=O)Nc1ccnc(C(F)(F)F)c1 [Compound 66, 3-chloro-4-[(3,3-difluoro-1-methyl-cyclobutyl)sulfamoyl]-1-methyl-N-[2-(trifluoromethyl)-4-pyridyl]pyrrole-2-carboxamide]",> 25000 nM,90 nM

Structure (SMILES),CC50 at 4 days [1],EC50 (HBV)
CC[C@@H](C)NS(=O)(=O)c1cn(C)c(C(=O)Nc2ccnc(C#N)c2)c1F [Compound 67],> 25000 nM,30 nM
"CC[C@@H](C)NS(=O)(=O)c1cn(C)c(C(=O)Nc2ccnc(C(F)(F)F)c2)c1F [Compound 68, 3-fluoro-1-methyl-4-[[(1R)-1-methylpropyl]sulfamoyl]-N-[2-(trifluoromethyl)-4-pyridyl]pyrrole-2-carboxamide]",> 25000 nM,50 nM
"CC[C@@H](C)NS(=O)(=O)c1cn(C)c(C(=O)Nc2ccnc(Cl)c2)c1F [Compound 69, N-(2-chloro-4-pyridyl)-3-fluoro-1-methyl-4-[[(1R)-1-methylpropyl]sulfamoyl]pyrrole-2-carboxamide]",> 25000 nM,30 nM
"CC[C@@H](C)NS(=O)(=O)c1cn(C)c(C(=O)Nc2ccnc(C(F)(F)F)c2)c1Cl [Compound 70, 3-chloro-1-methyl-4-[[(1R)-1-methylpropyl]sulfamoyl]-N-[2-(trifluoromethyl)-4-pyridyl]pyrrole-2-carboxamide]",> 25000 nM,150 nM
"Cc1c(S(=O)(=O)N[C@H](C)C(F)(F)F)c(F)c(C(=O)Nc2ccnc(C#N)c2)n1C [Compound 71, N-(2-cyano-4-pyridyl)-3-fluoro-1,5-dimethyl-4-[[(1R)-2,2,2-trifluoro-1-methyl-ethyl]sulfamoyl]pyrrole-2-carboxamide]",> 25000 nM,20 nM
"CC[C@@H](C)NS(=O)(=O)c1cn(C)c(C(=O)Nc2ccnc(C#N)c2)c1Cl [Compound 72, 3-chloro-N-(2-cyano-4-pyridyl)-1-methyl-4-[[(1R)-1-methylpropyl]-sulfamoyl]pyrrole-2-carboxamide]",> 25000 nM,100 nM
"CC[C@@H](C)NS(=O)(=O)c1cn(C)c(C(=O)Nc2ccnc(Cl)c2)c1Cl [Compound 73, 3-chloro-N-(2-chloro-4-pyridyl)-1-methyl-[[(1R)-1-methylpropyl]-sulfamoyl]pyrrole-2-carboxamide]",21600 nM,90 nM
"C[C@@H](NS(=O)(=O)c1cn(C)c(C(=O)Nc2ccc(F)c(Cl)n2)c1Cl)C(F)(F)F [Compound 75, 3-chloro-N-(6-chloro-5-fluoro-2-pyridyl)-1-methyl-4-[[(1R)-2,2,2-trifluoro-1-methyl-ethyl]sulfamoyl]pyrrole-2-carboxamide]",> 25000 nM,60 nM
"C[C@@H](NS(=O)(=O)c1cn(C)c(C(=O)Nc2ccc(F)c(Br)n2)c1Cl)C(F)(F)F [Compound 76, N-(6-bromo-5-fluoro-2-pyridyl)-3-chloro-1-methyl-4-[[(1R)-2,2,2-trifluoro-1-methyl-ethyl]sulfamoyl]pyrrole-2-carboxamide]",> 25000 nM,50 nM
"C[C@@H](NS(=O)(=O)c1cn(C)c(C(=O)Nc2ccc(F)nc2F)c1Cl)C(F)(F)F [Compound 77, 3-chloro-N-(2,6-difluoro-3-pyridyl)-1-methyl-4-[[(1R)-2,2,2-trifluoro-1-methyl-ethyl]sulfamoyl]pyrrole-2-carboxamide]",> 25000 nM,300 nM
"CC(C)NS(=O)(=O)c1cn(C)c(C(=O)Nc2ccnc(C(F)(F)F)c2)c1F [Compound 78, 3-fluoro-4-(isopropylsulfamoyl)-1-methyl-N-[2-(trifluoromethyl)-4-pyridyl]pyrrole-2-carboxamide]",> 25000 nM,260 nM
"CC(C)NS(=O)(=O)c1cn(C)c(C(=O)Nc2ccnc(Cl)c2)c1F [Compound 79, N-(2-chloro-4-pyridyl)-3-fluoro-4-(isopropylsulfamoyl)-1-methyl-pyrrole-2-carboxamide]",> 25000 nM,150 nM
"CC[C@H](NS(=O)(=O)c1cn(C)c(C(=O)Nc2ccnc(C(F)F)c2)c1Cl)C(F)(F)F [Compound 84, 3-chloro-N-[2-(difluoromethyl)-4-pyridyl]-1-methyl-4-[[(1S)-1-(trifluoromethyl)propyl]sulfamoyl]pyrrole-2-carboxamide]",> 25000 nM,110 nM
"CC[C@@H](C)NS(=O)(=O)c1cn(C)c(C(=O)Nc2ccnc(C(F)F)c2)c1F [Compound 86, N-[2-(difluoromethyl)-4-pyridyl]-3-fluoro-1-methyl-4-[[(1R)-1-methylpropyl]sulfamoyl]pyrrole-2-carboxamide]",21600 nM,40 nM
"C[C@H](CO)NS(=O)(=O)c1cn(C)c(C(=O)Nc2ccnc(Cl)c2)c1Cl [Compound 89, 3-chloro-N-(2-chloro-4-pyridyl)-4-[[(1R)-2-hydroxy-1-methyl-ethyl]sulfamoyl]-1-methyl-pyrrole-2-carboxamide]",> 25000 nM,360 nM
